{"source": "patent US7326418B2", "about": "“Identification of novel factors that block programmed cell death or apoptosis by targeting JNK” (University of Chicago, priority 2001, dated 2008)", "key": {"[1]": {"tested_on": "JNK activation in 3DO cells", "assay": "JNK activation by TNFα in 3DO cells (Western blots, JNK kinase assays)", "type": "cell-based", "description": "Plasmids were transfected as indicated along with pEGFP (Clontech). […] Inhibitors (Calbiochem) and concentrations are as indicated.\nNorthern blots were performed by standard procedures using 6 μg of total RNA. The EMSAs with the palindromic probes and the preparation of whole cell extracts were as previously described (Franzoso et al., 1992). For western blots, cell extracts were prepared either in a modified lysis buffer (50 mM Tris, pH 7.4, 100 mM NaCl, 50 mM NaF, 1 mM NaBo4, 30 mM pyrophosphate, 0.5% NP-40, and protease inhibitors (FIG. 1B; Boehringer Mannheim), in Triton X-100 buffer (FIG. 4A; Medema et al., 1997) or in a lysis buffer containing 1% NP-40 350 mM NaCl, 20 MM HEPES (pH 8.0), 20% glycerol, 1 mM MgCl2, 0.1 mM EGTA, 0.5 mM DTT, 1 mM Na3VO4, 50 mM NaF and protease inhibitors. Each time, equal amounts of proteins (ranging between 15 and 50 μg) were loaded and Western blots prepared according to standard procedures. Reactions were visualized by ECL (Amersham). Antibodies were as follows: IκBα, Bid, and β-actin from Santa Cruz Biotechnology; caspase-6, -7 and -9, phospho and total -p38, phosph and total -ERK, phospho and total -JNK from Cell Signaling Technology; caspase-8 from Alexis; Caspase-2 and -3 from R&D systems. The Gadd45β-specific antibody was generated against an N-Terminal peptide. Kinase assays were performed with recombinant GST-c-jun and anti-JNK antibodies (Pharmingen), (Lin et al., 1995)."}, "3DO-IκBαM cells": {"tested_on": "3DO-IκBαM cells", "assay": "Survival of 3DO-IκBαM cells pretreated with MAPK inhibitors, then TNFα", "details": "TNFα 25 U/ml 12 hours", "description": "FIG. 5a: Kinetics of JNK activation by TNKα (1000 U/ml) in 3DO—IκBαM and 3DO-Neo clones. Western blots with antibodies specific for phosphorylated (P) or total JNK (top and middle, respectively) and JNK kinase assays (bottom). […] CHX treatments were carried out for 30 minutes in addition to the indicated time. FIG. 5d: Survival of transfected RelA−/− MEFs following treatment with TNFα (1000 U/ml) plus CHX ([…]) for 10 hours. Plasmids were transfected as indicated along with pEGFP (Clontech). FIG. 5e: Survival of 3DO-IκBαM cells pretreated with MAPK inhibitors for 30 minutes and then incubated with either TNFα (25 U/ml) or PBS for an additional 12 hours. Inhibitors (Calbiochem) and concentrations are as indicated. In (d) and (e), values represent the mean of three independent experiments.\nMEF and 3DO cells were cultured in 10% Fetal bovine serum-supplemented DMEM and RPMI, respectively. Transient transfections in RelA−/− MEF were performed by Superfect according to the manufacturer's instructions (Qiagen). After cytotoxic treatment with CHX (Sigma) plus or minus TNFα (Peprotech), adherent cells were counted and analyzed by FCM (FACSort, Becton Dickinson) to assess numbers of live GFP^+ cells. To generate 3DO stable lines, transfections were carried out by electroporatoration (BTX) and clones were grown in appropriate selection media containing Geneticin (Gibco) and/or Hygromycin (Invitrogen). […] Daunorubicin, PMA, Ionomycin, hydrogen peroxide, and sorbitol were from Sigma; Cisplatin (platinol AQ) was from VHAplus, PD98059 and SB202190 were from Calbiochem."}, "[2]": {"details": "in vivo, cited from earlier work"}, "MDA-MD-231": {"tested_on": "MDA-MD-231", "details": "for induction of apoptosis by NF-κB blockers: PGA1 100 μM 20 hours, CAPE 50 μg/ml 17 hours, parthenolide 2.5 μg/ml 4 hours"}, "BT-20": {"tested_on": "BT-20", "details": "for induction of apoptosis by NF-κB blockers: PGA1 100 μM 20 hours, CAPE 50 μg/ml 17 hours, parthenolide 2.5 μg/ml 4 hours"}, "JNKK2/MKK7": {"target": "T1, JNKK2/MKK7 (Homo sapiens, UniProt O14733, Q133P/Q94H)", "T1 construct": "expressed in transfected cells; host or cells: HEK-293, TNFα-treated or untreated; anti-FLAG immunoprecipitate", "T1 sequence (O14733 1-401 Q94H/Q133P limits assumed)": "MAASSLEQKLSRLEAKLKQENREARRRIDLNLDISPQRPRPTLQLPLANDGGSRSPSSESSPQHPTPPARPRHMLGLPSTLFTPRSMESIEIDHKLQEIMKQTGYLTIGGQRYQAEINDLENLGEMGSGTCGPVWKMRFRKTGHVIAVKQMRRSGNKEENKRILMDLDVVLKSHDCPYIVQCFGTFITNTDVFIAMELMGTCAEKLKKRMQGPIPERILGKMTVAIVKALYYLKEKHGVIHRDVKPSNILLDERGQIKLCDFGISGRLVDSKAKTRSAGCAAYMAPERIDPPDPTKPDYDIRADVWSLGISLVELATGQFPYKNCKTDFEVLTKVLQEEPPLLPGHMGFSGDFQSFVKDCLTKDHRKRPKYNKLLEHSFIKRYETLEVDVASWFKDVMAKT", "assay": "Kinase assay of immunoprecipitated FLAG-JNKK2/MKK7 (GST-JNK1 substrate) pre-incubated with recombinant Gadd45β proteins or peptides", "type": "biochemical", "details": "active MKK7 from TNFα-activated 293 cells, GST-JNK1 substrate", "description": "Next, the functional consequences, in vitro, of the physical interactions of Gadd45β with kinases in the JNK pathway were assessed. Murine and human, full-length Gadd45J3 proteins were purified from E. coli as GST-Gadd45β and His6-tagged Gadd45β (His6 disclosed as SEQ ID NO: 46), respectively, according to standard procedures. Prior to employing these proteins in in vitro assays, purity of all recombinant polypeptides was assured by >98%, by performing Coomassie blue staining of SDS polyacrylamide gels. Then, the ability of these proteins, as well as of control GST and His6-EF3 (His6 disclosed as SEQ ID NO: 46)proteins, to inhibit kinases in the JNK pathways was monitored in vitro. FLAG-tagged JNKK2, JNKK1, MKK3, and ASK1 were immunoprecipitated from transiently transfected 293 cells using anti-FLAG antibodies and pre-incubated for 10 minutes with increasing concentrations of recombinant proteins, prior to the addition of specific kinase substrates (i.e. GST-JNK1 with JNKK1 and JNKK2; GST-p38[…] with MKK3; GST-JNNK1 or GST-JNKK2 with ASK1). […] These findings indicate that, upon binding to Gadd45β, JNKK2 is effectively inactivated.\nA question was whether Gadd45β inhibited active MKK7, in vitro. FLAG-MKK7 was immunoprecipitated from TNFα-treated or untreated 293 cells, and kinase assays were performed in the presence of purified His6-Gadd45β (His6 disclosed as SEQ ID NO: 46), GST-Gadd45β, or control proteins (FIG. 28d; see also FIG. 28g). […] Consistent with the in vivo findings (FIG. 27), the inhibitory activity of Gadd45β was specific. […] Indeed, the effects of Gadd45β on MKK7 phosphorylation by TNFα may be due inhibition of the MKK7 ability to auto-phoshorylate and/or to serve as substrate for upstream kinases. Altogether, the findings identify MKK7 as a target of Gadd45β, and of NF-[…]B, in the JNK cascade. Of interest, MKK7 is a selective activator of JNK, and its ablation abolishes JNK activation by TNFα. Thus, blockade of MKK7 is sufficient on its own to explain the effects of Gadd45β on JNK signaling—i.e. its specific and near-complete suppression of this signaling.\nActive MKK7 was immunoprecipitated from TNFα-activated 293 cells and MKK7 kinase assays were performed using GST-JNK1 substrates and pure recombinant Gadd45β polypeptides (FIG. 37B; a schematic diagram representing the Gadd45βpolypeptides used is shown in FIG. 37A). […] MKK7 kinase assays were performed as in FIG. 37B, except that pure synthetic Gadd45, peptides (whose sequences are shown in FIG. 37C) were used instead of pure recombinant Gadd45β proteins. The amino acid region between amino acids 58 and 77 of Gadd45βis used for the Gadd45β-mediated inhibition of MKK7. […]"}, "[3]": {"details": "concomitant treatment with PGA1, CAPE or parthenolide"}}, "note": "Entries after “also recorded” stand apart in the source; their conditions may differ. Structures can show the parent of a compound that is named as a salt. Peptide text beside a SMILES is read from it. * marks the point of attachment. Cbz = O=C(OCc1ccccc1)*; CH2F = FC*", "data": [{"molecule": "COC(=O)C[C@H](NC(=O)[C@H](C)NC(=O)[C@@H](NC(=O)OCc1ccccc1)C(C)C)C(=O)CF", "note": "[zVAD-fik] (Cbz-Val-Ala-Asp(OMe)-CH2F)", "values": [{"measurement": "late (160 minutes, caspase-dependent) rise of JNK activation by TNFα", "setting": "[1]; IκBαM-Hygro 3DO clones", "value": "could be prevented"}]}, {"molecule": "Oc1ccc(-c2nc(-c3ccncc3)c(-c3ccc(F)cc3)[nH]2)cc1", "note": "[SB202190]", "values": [{"measurement": "cell survival under TNFα", "setting": "3DO-IκBαM cells; high concentrations, 50 μM", "value": "dramatically enhanced cell survival; also recorded: rescues"}, {"measurement": "antagonism of TNFα cytotoxicity", "setting": "3DO-IκBαM cells; low concentrations, 5 μM and lower", "value": "could not antagonize"}]}, {"molecule": "COc1cccc(-c2cc(=O)c3ccccc3o2)c1N", "note": "[PD98059]", "values": [{"measurement": "antagonism of TNFα cytotoxicity", "setting": "3DO-IκBαM cells; 30 min pretreatment", "value": "could not antagonize"}]}, {"molecule": "COc1cccc2c1C(=O)c1c(O)c3c(c(O)c1C2=O)C[C@@](O)(C(C)=O)C[C@@H]3O[C@H]1C[C@H](N)[C@H](O)[C@H](C)O1", "note": "[daunorubicin, 5,12-Naphthacenedione, (8S-cis)-8-acetyl-10-[(3-amino-2,3,6-trideoxy-a-L-lyxo-hexanopyranosyl)oxy]-7,8,9,10-tetrahydro-6,8,11-trihydroxy-10-methoxy-, hydrochloride]", "values": [{"measurement": "oral absorption", "setting": "[2]", "value": "poor"}, {"measurement": "half-life of elimination", "setting": "[2]", "value": "about 19 hr"}, {"measurement": "secreted into the bile", "setting": "[2]", "value": "~40", "unit": "%"}]}, {"molecule": "Oc1c2ccccc2c2c3c(cccc13)N=N2", "note": "[SP600125]", "values": [{"measurement": "rescue from cytotoxicity induced by inhibition of NF-κB", "setting": "MDA-MD-231; [3]", "value": "can be rescued; also recorded: dramatically rescued"}, {"measurement": "rescue from cytotoxicity induced by inhibition of NF-κB", "setting": "BT-20; [3]", "value": "can be rescued; also recorded: dramatically rescued"}]}, {"molecule": "C[C@@H]1C[C@@H]([C@H](O)CC2CC(=O)NC(=O)C2)C(=O)[C@@H](C)C1", "note": "[CHX, cycloheximide]", "values": [{"measurement": "JNK activation by agent alone", "setting": "[1]; 3DO cells, CHX alone", "value": "no effect"}, {"measurement": "down-regulation of TNFα-induced JNK", "setting": "[1]; parental 3DO cells, TNFα 1000 U/ml plus CHX 10 μg/ml", "value": "impaired"}]}, {"molecule": "AIDEEEEDDIALQIHFTLIQSFCCDND [amino acids 60-86, positions 60-86 of Gadd45β]", "values": [{"measurement": "inhibition of MKK7 activity by Gadd45β-derived peptides / polypeptide regions", "setting": "JNKK2/MKK7", "value": "sufficient to also inhibit MKK7 activity"}]}, {"molecule": "N.N.[Cl][Pt][Cl]", "note": "[Cisplatin]", "values": [{"measurement": "oral absorption", "setting": "[2]", "value": "not absorbed orally"}]}, {"molecule": "COc1cccc2c1C(=O)c1c(O)c3c(c(O)c1C2=O)C[C@@](O)([C@H](C)O)C[C@@H]3O[C@H]1C[C@H](N)[C@H](O)[C@H](C)O1", "note": "[daunorubicinol]", "values": [{"measurement": "half-life of active metabolite", "setting": "[2]", "value": "about 27 hr"}]}, {"molecule": "O=C(/C=C/c1ccc(O)c(O)c1)OCCc1ccccc1", "note": "[CAPE]", "values": [{"measurement": "induction of apoptosis by NF-κB blockers", "setting": "MDA-MD-231", "value": "induced apoptosis rapidly"}, {"measurement": "induction of apoptosis by NF-κB blockers", "setting": "BT-20", "value": "induced apoptosis rapidly"}]}, {"molecule": "CCCCC[C@H](O)/C=C/[C@H]1C=CC(=O)[C@@H]1CCCCCCC(=O)O", "note": "[prostaglandin A1]", "values": [{"measurement": "induction of apoptosis by NF-κB blockers", "setting": "MDA-MD-231", "value": "induced apoptosis rapidly"}, {"measurement": "induction of apoptosis by NF-κB blockers", "setting": "BT-20", "value": "induced apoptosis rapidly"}]}]}
